Results from patent US20230263792A1, “USE OF 2,3,5-SUBSTITUTED THIOPHENE COMPOUND FOR PREVENTING, ALLEVIATION, OR TREATING MASTOCYTOSIS” (PHAROS IBIO CO., LTD, priority 2020, published 2023).

What was measured:
[1] = test system: HMC-1.2 cell line (imatinib-resistant cell line, having c-kit G560V/D816V mutation); assay: Growth inhibition of mastocytosis cell line HMC-1.2; format: cell-based; conditions: HMC-1.2, 72 hours
Experimental: [Worded in the source for another cell line; this cell line is reported under the same test.] Specifically, 100 μl of a Ba/F3 cell line with a c-kit D816V mutation (FIG. 1) was added to each well of a 96-well plate at a concentration of 10,000 cells/100 μl. […] As the control compounds, imatinib and sunitinib which are c-kit inhibitors were used.

[2] = test system: inflammatory response caused by mastocytosis (HMC-1.2 mouse model); assay: Spleen/body weight ratio in mastocytosis mouse model (inflammatory response); format: in vivo, NOD SCID female mice
Experimental: (§1) As mice, 6-8-week-old NOD SCID female mice (18 to 22 g) (GemPharmatech Co., Ltd.) were prepared. Mice were acclimatized for 7 days before use in the experiment, and mice with abnormal health were excluded from the experiment. Mice were bred in a cage (300×180×150 mm) at a 22±3° C. and a relative humidity of 40% to 70% with a 12-hr light/12-hr dark cycle. Mice were allowed access to sterilized dry granular food (Beijing Keaoxieli Feed Co., Ltd., Beijing, China) and water ad libitum for the entire experimental period except for the period specified in the protocol.
50 ml of HMC-1.2 cells suspension-cultured in a 75T flask were placed in a conical tube and centrifuged at 1,200 rpm for 2 minutes, centrifuged with DPBS (Dulbecco's Phosphate-Buffered Saline, Welgene) at 1,200 rpm for 2 minutes, washed, and then suspended in RPMI1640 (Welgene) without antibiotics and fetal bovine serum (FBS). Then, the cells were stained with trypan blue, counted with a hemocytometer, and then HMC-1.2 cells (1×10^6) in a mixture of 0.1 ml L-15 and Matrigel (BD, cat. No. 356234) (1:1) were subcutaneously injected into the right flanks of mice anesthetized by intraperitoneal administration of Avertin (250 mg/kg), thus inducing tumors.
Thereafter, when the average tumor volume reached 150 to 200 mm^3, 4 mice were assigned to each group so that the average tumor volume at each group and treatment time was the same between the groups. Then, each of imatinib at a dose of 90 mg/kg, sunitinib at doses of 20 and 40 mg/kg, and PHI-101 at doses of 7, 20, 40 and 80 mg/kg was administered orally to the mice once daily for 3 weeks. For oral administration, each compound was dissolved in 5% 1-methyl-2-pyrrolidone and then completely mixed in 15% Kolliphor, 30% PEG E400 HS15 and 50% 0.05M citric acid.
Specifically, 3 weeks after administering each drug to the mastocytosis mouse model of Example 3-1, the mice were sacrificed, the body weight and spleen weight were measured using a digital scale, and then the spleen/body weight ratio was calculated.

[3] = test system: neoplastic mast cells with the c-KIT mutation D816V; conditions: literature, background; cited from earlier work
[4] = test system: neoplastic mast cells exhibiting wild type (wt) KIT or the rarely occurring F522C-mutated variant of KIT; conditions: literature, background; cited from earlier work
[5] = test system: HMC-1.2 cells subcutaneous tumor; assay: Tumor growth inhibition in mastocytosis mouse model with HMC-1.2 cell line; format: in vivo, NOD SCID female mice
Experimental: as §1
50 ml of HMC-1.2 cells suspension-cultured in a 75T flask were placed in a conical tube and centrifuged at 1,200 rpm for 2 minutes, centrifuged with DPBS (Dulbecco's Phosphate-Buffered Saline, Welgene) at 1,200 rpm for 2 minutes, washed, and then suspended in RPMI1640 (Welgene) without antibiotics and fetal bovine serum (FBS).
Thereafter, when the average tumor volume reached 150 to 200 mm^3, 4 mice were assigned to each group so that the average tumor volume at each group and treatment time was the same between the groups.
In addition, the width and length of the tumor were measured using a caliper at 3-day intervals, and the tumor volume was calculated using the following equation.
(V: tumor volume, W: tumor width, and L: tumor length)
In addition, the mice were sacrificed 3 weeks after the start of oral administration of each drug and the tumor weight was measured using a digital scale. For each data, one-way ANOVA was used to test the significance of each group.

[6] = 90 mg/kg oral once daily for 3 weeks
[7] = 20 mg/kg oral once daily for 3 weeks
[8] = 40 mg/kg oral once daily for 3 weeks

In the case of `Cc1ccc(C(=O)Nc2ccc(CN3CCN(C)CC3)c(C(F)(F)F)c2)cc1C#Cc1cnc2cccnn12` [Ponatinib], the GI50 [1] is reported as 194 nM.
In the case of `Cc1ccc(NC(=O)c2ccc(CN3CCN(C)CC3)cc2)cc1Nc1nccc(-c2cccnc2)n1` [Imatinib, reference compound], the “Spleen/body weight ratio % of control” value [2, 6] is reported as 97.7%, the “Spleen/body weight ratio Inhibition (%)” value [2, 6] is reported as 2.3% and the GI50 [1] is reported as 17100 nM. The “growth of neoplastic mast cells with c-KIT D816V” value [3] was “failed to inhibit the growth”, the “growth of neoplastic mast cells with wt KIT or F522C KIT” value [4] was “counteract the growth” and the “Tumor growth inhibition (TGI) (%) Tumor weight” value [5, 6] was 7.8%.
For `CCN(CC)CCNC(=O)c1c(C)[nH]c(/C=C2\C(=O)Nc3ccc(F)cc32)c1C` [Sunitinib, reference compound], the “Spleen/body weight ratio % of control” value [2, 7] was 104.3%, the “Spleen/body weight ratio Inhibition (%)” value [2, 7] was −4.3% and the “Spleen/body weight ratio % of control” value [2, 8] was 102.7%. The “Spleen/body weight ratio Inhibition (%)” value [2, 8] was −2.7%, the GI50 [1] was 1300 nM and the “Tumor growth inhibition (TGI) (%) Timor volume” value [5, 7] was 37.3%. The “Tumor growth inhibition (TGI) (%) Tumor weight” value [5, 7] was 49.5%, the “Tumor growth inhibition (TGI) (%) Timor volume” value [5, 8] was 46.2% and the “Tumor growth inhibition (TGI) (%) Tumor weight” value [5, 8] was 47.9%.
In the case of `Cc1nc(Nc2ncc(C(=O)Nc3c(C)cccc3Cl)s2)cc(N2CCN(CCO)CC2)n1` [Dasatinib], the GI50 [1] is reported as 312 nM.
